# Results: PMC3170524 (Physiological research / Academia Scientiarum Bohemoslovaca, 2010)
# Numbering of substitutions follows the chain as printed.
# Legend:
# Assay in all cases: whole-cell patch clamp, peak current dose-response
# Assay type in all cases: cell-based
# rat P2X4R [1] = biological target: T1, rat P2X4R (Rattus norvegicus, UniProt P51577, C261A)
# T1 sequence (P51577 1-388 C261A): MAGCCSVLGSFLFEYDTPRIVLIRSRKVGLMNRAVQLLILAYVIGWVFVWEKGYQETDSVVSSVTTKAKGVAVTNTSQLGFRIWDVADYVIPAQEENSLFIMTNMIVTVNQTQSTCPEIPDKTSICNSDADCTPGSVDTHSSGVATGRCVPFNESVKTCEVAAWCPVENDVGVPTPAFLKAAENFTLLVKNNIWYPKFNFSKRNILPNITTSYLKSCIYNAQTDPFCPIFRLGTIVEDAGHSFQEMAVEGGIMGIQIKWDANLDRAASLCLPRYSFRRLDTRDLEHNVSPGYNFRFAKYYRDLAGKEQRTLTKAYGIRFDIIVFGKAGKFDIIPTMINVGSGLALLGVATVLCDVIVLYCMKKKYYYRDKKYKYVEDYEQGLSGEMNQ
# rat P2X4R [2] = biological target: T2, rat P2X4R (Rattus norvegicus, UniProt P51577, C159T)
# T2 sequence (P51577 1-388 C159T): T1 sequence (P51577 1-388 C261A) with C159T, A261C
# rat P2X4R [3] = biological target: T3, rat P2X4R (Rattus norvegicus, UniProt P51577, C261T/C270T)
# T3 sequence (P51577 1-388 C261T/C270T): T1 sequence (P51577 1-388 C261A) with A261T, C270T
# rat P2X4R [4] = biological target: T4, rat P2X4R (Rattus norvegicus, UniProt P51577, C165A)
# T4 sequence (P51577 1-388 C165A): T1 sequence (P51577 1-388 C261A) with C165A, A261C
structure (smiles),measurement,setting,value
Nc1ncnc2c1ncn2[C@@H]1O[C@H](COP(=O)(O)OP(=O)(O)OP(=O)(O)O)[C@@H](O)[C@H]1O [ATP],EC50,rat P2X4R [1],5.5 ± 1.7 µM
same,EC50,rat P2X4R [2],12 ± 4.1 µM
same,EC50,rat P2X4R [3],1.7 ± 0.8 µM
same,EC50,rat P2X4R [4],42 ± 8.9 µM
